According to patent publication US20250332173A1, “COMPOUNDS AND METHODS FOR MODULATING NUCLEIC ACID SPLICING” (REMIX THERAPEUTICS INC., priority 2021, published 2025):
Where two headings read alike, the source gives them in different places.

How the values were obtained:
Assay type in all cases: cell-based, human
SMN2 mRNA = test: RT-qPCR splicing assay, SMN2 canonical junction (CJ) mRNA; conditions: Table 5 panel, canonical junction qPCR, compound concentration having 50% response in CJ decrease, read-out: SMN2 IC50 (decrease in CJ mRNA levels)
Procedure, shortened: (§1)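 A673 cells (DMEM/10% FBS) or K562 cells (IMDM/10% FBS) were treated 24 h at 37° C. with 11-point 3-fold dilutions (top 10 uM, ≤0.25% DMSO). Canonical-junction mRNA was quantified in lysates by RT-qPCR, normalized to GAPDH, GUSB or PPIA.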

HTT mRNA = test: RT-qPCR splicing assay, HTT canonical junction (CJ) and alternative junction (AJ) mRNA; conditions: for AC50: increase in HTT alternative junction (AJ) mRNA, read-out: HTT AJ AC50
Procedure, shortened: (§2)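 A673 or K562 cells were treated for 24 h at 37 °C with an 11-point 3-fold compound dilution series (top final concentration 10 uM, DMSO ≤0.25%). After lysis, one-step TaqMan RT-qPCR quantified junction transcripts, normalized to PPIA for A673 or to GAPDH/GUSB for K562.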

Target C = test: RT-qPCR splicing assay panel, Target C canonical junction (CJ) mRNA; conditions: Table 5 panel, canonical junction qPCR, compound concentration having 50% response in CJ decrease, read-out: Target C IC50 (decrease in CJ mRNA levels)
Procedure, shortened: as §1

MYB mRNA = test: RT-qPCR splicing assay, MYB canonical junction (CJ) and alternative junction (AJ) mRNA; conditions: for AC50: increase in MYB alternative junction (AJ) mRNA, read-out: MYB AJ AC50
Procedure, shortened: as §2

[1] = Homo sapiens, decrease in HTT canonical junction (CJ) mRNA, RT-qPCR, read-out: HTT CJ IC50
[2] = Homo sapiens, Table 5 panel, canonical junction qPCR, compound concentration having 50% response in CJ decrease, read-out: HTT IC50 (decrease in CJ mRNA levels)
[3] = Homo sapiens, Table 5 panel, canonical junction qPCR, compound concentration having 50% response in CJ decrease, read-out: MYB IC50 (decrease in CJ mRNA levels)
[4] = Homo sapiens, decrease in MYB canonical junction (CJ) mRNA, RT-qPCR, read-out: MYB CJ IC50

Row | IC50 (SMN2 mRNA; Homo sapiens) [nM] | IC50 (HTT mRNA; [1]) [nM] | IC50 (HTT mRNA; [2]) [nM] | IC50 (Target C; Homo sapiens) [nM] | IC50 (MYB mRNA; [3]) [nM] | IC50 (MYB mRNA; [4]) [nM] | IC50 (SMN2 mRNA) [nM] | IC50 (HTT mRNA; Table 5 panel, canonical junction qPCR, compound concentration having 50% response in CJ decrease, read-out: HTT IC50 (decrease in CJ mRNA levels)) [nM] | IC50 (HTT mRNA; decrease in HTT canonical junction (CJ) mRNA, RT-qPCR, read-out: HTT CJ IC50) [nM] | IC50 (Target C) [nM] | IC50 (MYB mRNA; Table 5 panel, canonical junction qPCR, compound concentration having 50% response in CJ decrease, read-out: MYB IC50 (decrease in CJ mRNA levels)) [nM] | IC50 (MYB mRNA; decrease in MYB canonical junction (CJ) mRNA, RT-qPCR, read-out: MYB CJ IC50) [nM] | SMILES | AC50 (HTT mRNA; Homo sapiens, RT-qPCR) [nM] | AC50 (MYB mRNA; Homo sapiens, RT-qPCR) [nM] | AC50 (HTT mRNA; RT-qPCR) [nM] | AC50 (MYB mRNA; RT-qPCR) [nM]
1 | < 100 | < 100 | < 100 | < 100 | < 100 | < 100 |  |  |  |  |  |  | Cc1cn2nc(-c3cc(F)c4c(=O)n(C5CCNCC5)cnc4c3)cc(C)c2n1 [Compound 243] | < 100 | < 100 |  | 
2 | 100 to 1000 | > 10000 | > 10000 | > 10000 | > 10000 | > 10000 |  |  |  |  |  |  | Cc1cn2cc(-c3ccc4c(=O)n(C5CCNCC5)cnc4c3)c(C)cc2n1 [Compound 244] | > 10000 | > 10000 |  | 
3 | < 100 | 100 to 1000 | 100 to 1000 | 100 to 1000 | 100 to 1000 | 100 to 1000 |  |  |  |  |  |  | Cc1nc2c(F)cc(-c3ccc4c(=O)n(C5CCNCC5)cnc4c3)cc2o1 [Compound 245] | 100 to 1000 | 100 to 1000 |  | 
4 | 1000 to 10000 | 1000 to 10000 | 1000 to 10000 | 1000 to 10000 | 1000 to 10000 | 1000 to 10000 |  |  |  |  |  |  | Cn1cc2cc(-c3ccc4c(=O)n(C5CCNCC5)ncc4c3)cc(F)c2n1 [Compound 249] | 1000 to 10000 | 1000 to 10000 |  | 
5 | < 100 | < 100 | < 100 | 100 to 1000 | 100 to 1000 | 100 to 1000 |  |  |  |  |  |  | Cc1nc2c(F)cc(-c3ccc4c(=O)n(C5CCNCC5)ncc4c3)cc2o1 [Compound 250] | < 100 | 100 to 1000 |  | 
6 | < 100 | 100 to 1000 | 100 to 1000 | 100 to 1000 | 100 to 1000 | 100 to 1000 |  |  |  |  |  |  | Cc1cc(-c2ccc3c(=O)n(C4CCNCC4)ncc3c2)cc2cn(C)nc12 [Compound 251] | 100 to 1000 | 100 to 1000 |  | 
7 | 100 to 1000 | 1000 to 10000 | 1000 to 10000 | 1000 to 10000 | 1000 to 10000 | 1000 to 10000 |  |  |  |  |  |  | Cc1nc2c(F)cc(-c3ccc4c(=O)n(C5CCNCC5)ncc4c3)cc2s1 [Compound 253] | 1000 to 10000 | 1000 to 10000 |  | 

Second part, the compound before the results:

Row | SMILES | IC50 (SMN2 mRNA; Homo sapiens) [nM] | IC50 (HTT mRNA; [1]) [nM] | IC50 (HTT mRNA; [2]) [nM] | IC50 (Target C; Homo sapiens) [nM] | IC50 (MYB mRNA; [3]) [nM] | IC50 (MYB mRNA; [4]) [nM] | IC50 (SMN2 mRNA) [nM] | IC50 (HTT mRNA; Table 5 panel, canonical junction qPCR, compound concentration having 50% response in CJ decrease, read-out: HTT IC50 (decrease in CJ mRNA levels)) [nM] | IC50 (HTT mRNA; decrease in HTT canonical junction (CJ) mRNA, RT-qPCR, read-out: HTT CJ IC50) [nM] | IC50 (Target C) [nM] | IC50 (MYB mRNA; Table 5 panel, canonical junction qPCR, compound concentration having 50% response in CJ decrease, read-out: MYB IC50 (decrease in CJ mRNA levels)) [nM] | IC50 (MYB mRNA; decrease in MYB canonical junction (CJ) mRNA, RT-qPCR, read-out: MYB CJ IC50) [nM] | AC50 (HTT mRNA; Homo sapiens, RT-qPCR) [nM] | AC50 (MYB mRNA; Homo sapiens, RT-qPCR) [nM] | AC50 (HTT mRNA; RT-qPCR) [nM] | AC50 (MYB mRNA; RT-qPCR) [nM]
8 | Cc1cn2cc(-c3ccc4c(=O)n(C5CCN(C)CC5)cnc4c3)c(C)cc2n1 [Compound 246] | 1000 to 10000 | 1000 to 10000 | 1000 to 10000 | 1000 to 10000 | 1000 to 10000 | 1000 to 10000 |  |  |  |  |  |  | 1000 to 10000 | 1000 to 10000 |  | 
9 | Cc1cn2cc(-c3ccc4c(c3)CCN(C3CCNCC3)C4=O)cc(F)c2n1 [Compound 247] | < 100 | 1000 to 10000 | 1000 to 10000 | 1000 to 10000 | 100 to 1000 | 100 to 1000 |  |  |  |  |  |  | 1000 to 10000 | 100 to 1000 |  | 
10 | Cc1cn2cc(-c3ccc4c(=O)n(C5CCNCC5)ncc4c3)cc(F)c2n1 [Compound 248] | < 100 | 100 to 1000 | < 100 | 100 to 1000 | 100 to 1000 | 100 to 1000 |  |  |  |  |  |  | < 100 | 100 to 1000 |  | 
11 | Cc1cn2cc(-c3ccc4c(c3)CCN(C3CCNCC3)C4=O)cc(C(F)(F)F)c2n1 [Compound 252] | 100 to 1000 | > 10000 | > 10000 | > 10000 | 1000 to 10000 | 1000 to 10000 |  |  |  |  |  |  | > 10000 | 1000 to 10000 |  | 
12 | Cc1cn2cc(-c3ccc4c(=O)n(C5CCNCC5)ncc4c3)c(C)cc2n1 [Compound 254] | 1000 to 10000 | 1000 to 10000 | 1000 to 10000 | 1000 to 10000 | 1000 to 10000 | 1000 to 10000 |  |  |  |  |  |  | 1000 to 10000 | 1000 to 10000 |  | 
13 | Cc1cn2cc(-c3ccc4c(=O)n(C5CCNCC5)ncc4c3)ncc2n1 [Compound 255] | 100 to 1000 | 1000 to 10000 | 1000 to 10000 | > 10000 | 1000 to 10000 | 1000 to 10000 |  |  |  |  |  |  | 1000 to 10000 | 1000 to 10000 |  | 
14 | Cc1cn2cc(-c3ccc4c(=O)n(C5CCNCC5)ncc4c3)cc(Cl)c2n1 [Compound 256] | < 100 | 100 to 1000 | 100 to 1000 | > 10000 | 100 to 1000 | 100 to 1000 |  |  |  |  |  |  | 100 to 1000 | 100 to 1000 |  | 
15 | Cc1cn2cc(-c3ccc4c(=O)n(C5CCNCC5)ncc4c3)cc(C)c2n1 [Compound 257] | < 100 | 100 to 1000 | 100 to 1000 | 1000 to 10000 | 100 to 1000 | 100 to 1000 |  |  |  |  |  |  | 100 to 1000 | 100 to 1000 |  | 
16 | Cc1cn2nc(-c3ccc4c(=O)n(C5CCNCC5)ncc4c3)nc2c(C)n1 [Compound 259] | 100 to 1000 | 100 to 1000 | 100 to 1000 | 100 to 1000 | 100 to 1000 | 100 to 1000 |  |  |  |  |  |  | 100 to 1000 | 100 to 1000 |  | 
17 | Cc1cn2nc(-c3ccc4c(=O)n(C5CCNCC5)ncc4c3)cc2c(C)n1 [Compound 260] | 100 to 1000 | 100 to 1000 | 100 to 1000 | 1000 to 10000 | 1000 to 10000 | 100 to 1000 |  |  |  |  |  |  | 100 to 1000 | 1000 to 10000 |  | 
18 | O=c1c2ccc(-c3cn[nH]c3)cc2cnn1C1CCNCC1 [Compound 261] | 1000 to 10000 | > 10000 | > 10000 | > 10000 | > 10000 | > 10000 |  |  |  |  |  |  | > 10000 | > 10000 |  | 
19 | Cc1cn2cc(-c3ccc4c(=O)n(C5CCNCC5)ncc4c3)cc(C(F)(F)F)c2n1 [Compound 262] | < 100 | 1000 to 10000 | 1000 to 10000 | 1000 to 10000 | 1000 to 10000 | 100 to 1000 |  |  |  |  |  |  | 1000 to 10000 | 1000 to 10000 |  | 
20 | Cn1cc2ccc(-c3ccc4c(=O)n(C5CCNCC5)ncc4c3)cc2n1 [Compound 263] | > 10000 | > 10000 | > 10000 | > 10000 | > 10000 | > 10000 |  |  |  |  |  |  | > 10000 | > 10000 |  | 
21 | Cc1cn2nc(-c3ccc4c(=O)n(C5CCNC5)ncc4c3)cc(C)c2n1 (stereo not shown) [Compound 264] | 100 to 1000 | 1000 to 10000 | 1000 to 10000 | > 10000 | 1000 to 10000 | 1000 to 10000 |  |  |  |  |  |  | 1000 to 10000 | 1000 to 10000 |  | 
22 | Cc1cn2nc(-c3ccc4c(=O)n(C5CCN(C)CC5)ncc4c3)cc(C)c2n1 [Compound 265] | < 100 | < 100 | < 100 | 100 to 1000 | 100 to 1000 | < 100 |  |  |  |  |  |  | < 100 | 100 to 1000 |  | 
23 | Cc1cn2nc(-c3ccc4c(=O)n([C@@H]5CCNC6(CC6)C5)cnc4c3)cc(C)c2n1 [Compound 444] |  |  |  |  |  |  | < 100 | 100 to 1000 | 100 to 1000 | 100 to 1000 | < 100 | < 100 |  |  | 100 to 1000 | < 100
